Reference: patent US20240269139A1, “COMPOUNDS FOR TARGETED PROTEIN DEGRADATION OF KINASES” (DANA-FARBER CANCER INSTITUTE, INC., priority 2020, published 2024)
Read-outs that look alike come from different tables or passages of the source.

Key:
[1] = molecular target: protein kinases (human kinome) (Homo sapiens, UniProt P49840); format: cell-based; conditions: GSK3A P49840; experiment wp068
[2] = test system: protein kinases (human kinome); format: cell-based
[3] = molecular target: protein kinases (human kinome) (Homo sapiens, UniProt Q96BR1); format: cell-based
[4] = molecular target: T1, protein kinases (human kinome) (Homo sapiens, UniProt Q9UQ88); format: cell-based
T1 sequence (Q9UQ88 1-783): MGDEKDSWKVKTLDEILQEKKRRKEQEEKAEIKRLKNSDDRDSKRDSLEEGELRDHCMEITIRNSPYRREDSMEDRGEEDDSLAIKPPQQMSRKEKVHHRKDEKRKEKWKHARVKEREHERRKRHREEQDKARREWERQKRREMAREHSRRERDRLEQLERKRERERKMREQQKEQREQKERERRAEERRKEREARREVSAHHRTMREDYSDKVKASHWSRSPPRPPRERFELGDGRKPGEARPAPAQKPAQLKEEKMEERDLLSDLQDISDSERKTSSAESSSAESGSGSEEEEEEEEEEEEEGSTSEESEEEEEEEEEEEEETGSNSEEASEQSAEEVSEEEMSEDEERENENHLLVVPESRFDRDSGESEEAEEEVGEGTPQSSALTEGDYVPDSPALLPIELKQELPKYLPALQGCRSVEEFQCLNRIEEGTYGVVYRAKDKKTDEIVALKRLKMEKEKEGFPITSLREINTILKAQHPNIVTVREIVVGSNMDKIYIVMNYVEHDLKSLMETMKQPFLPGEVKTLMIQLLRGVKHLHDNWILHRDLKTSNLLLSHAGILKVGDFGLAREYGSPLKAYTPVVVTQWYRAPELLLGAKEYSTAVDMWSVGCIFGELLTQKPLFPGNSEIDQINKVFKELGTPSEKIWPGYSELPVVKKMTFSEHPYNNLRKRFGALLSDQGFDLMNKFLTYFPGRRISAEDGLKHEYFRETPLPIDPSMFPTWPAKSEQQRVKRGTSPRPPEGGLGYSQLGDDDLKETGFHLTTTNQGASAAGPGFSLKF

[5] = molecular target: protein kinases (human kinome) (Homo sapiens, UniProt P48736); format: cell-based
[6] = molecular target: extended human kinome (kinase-like proteins) (Homo sapiens, UniProt Q16875); assay: Whole cell quantitative proteomics: extended kinome hits; conditions: Accession Q16875; experiment wp068
[7] = molecular target: protein kinases (human kinome) (Homo sapiens, UniProt Q9H0K1); format: cell-based; conditions: experiment wp195
[8] = molecular target: protein kinases (human kinome) (Homo sapiens, UniProt P42684); format: cell-based
[9] = molecular target: protein kinases (human kinome) (Homo sapiens, UniProt P29597); format: cell-based; conditions: experiment wp195
[10] = molecular target: T2, protein kinases (human kinome) (Homo sapiens, UniProt P29323); format: cell-based
T2 sequence (P29323 19-1055): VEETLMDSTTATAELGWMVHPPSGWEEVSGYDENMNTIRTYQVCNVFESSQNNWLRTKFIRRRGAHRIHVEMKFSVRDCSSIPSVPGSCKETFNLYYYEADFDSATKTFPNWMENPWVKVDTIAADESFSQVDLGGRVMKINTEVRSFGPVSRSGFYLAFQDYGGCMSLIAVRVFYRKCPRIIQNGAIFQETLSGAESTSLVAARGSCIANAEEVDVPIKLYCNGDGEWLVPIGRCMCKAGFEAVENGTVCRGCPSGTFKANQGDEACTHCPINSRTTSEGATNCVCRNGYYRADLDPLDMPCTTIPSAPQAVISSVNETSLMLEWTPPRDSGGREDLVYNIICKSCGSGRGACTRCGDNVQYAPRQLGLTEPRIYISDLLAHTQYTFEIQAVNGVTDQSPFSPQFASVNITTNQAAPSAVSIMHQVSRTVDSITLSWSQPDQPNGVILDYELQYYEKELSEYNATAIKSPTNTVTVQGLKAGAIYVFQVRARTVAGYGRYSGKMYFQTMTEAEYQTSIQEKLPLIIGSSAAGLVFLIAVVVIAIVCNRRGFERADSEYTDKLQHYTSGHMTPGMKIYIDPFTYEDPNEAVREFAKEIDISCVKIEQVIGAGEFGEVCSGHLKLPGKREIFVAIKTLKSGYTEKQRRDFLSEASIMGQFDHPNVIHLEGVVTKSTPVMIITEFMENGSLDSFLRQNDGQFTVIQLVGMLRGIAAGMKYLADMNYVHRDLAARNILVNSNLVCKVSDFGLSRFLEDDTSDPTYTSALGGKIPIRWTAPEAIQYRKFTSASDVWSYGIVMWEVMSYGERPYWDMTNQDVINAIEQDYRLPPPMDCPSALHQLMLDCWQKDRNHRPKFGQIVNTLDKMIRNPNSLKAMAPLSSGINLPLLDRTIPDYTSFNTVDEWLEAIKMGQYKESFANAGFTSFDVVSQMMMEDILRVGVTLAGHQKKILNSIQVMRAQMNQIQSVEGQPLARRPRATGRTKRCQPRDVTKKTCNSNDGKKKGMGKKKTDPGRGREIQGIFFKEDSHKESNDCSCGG

[11] = molecular target: protein kinases (human kinome) (Homo sapiens, UniProt Q16877); format: cell-based; conditions: PFKFB4 (Q16877); experiment wp071
[12] = format: cell-based, H. sapiens; conditions: MOLT-4, 1 μM, 5 h, 5 μM CB-5083
[13] = molecular target: T3, CRBN-degrader-kinase ternary complexes (Homo sapiens, UniProt Q96SW2); assay: FLAG-CRBN affinity purification TMT LC-MS3 (AP-MS) of degrader-mediated ternary complexes; format: cell-based, H. sapiens; conditions: HEK293T, 1 μM, 5 h, proteasome inhibitor
T3 construct: host or cells: HEK293T
Description: An important aspect of protein degraders is the multifaceted nature of the molecule that enables heightened target selectivity due to differences in complementarity of target-ligase interactions, which is not a consideration when assessing selectivity of inhibitors for target engagement (Famaby el al., Nat Chem Biol 15:672-680 (2019)). For compound-induced degradation to be successful, productive ternary complex formation (ligase-degrader-POI) is necessary for proximity-mediated ubiquitin transfer onto the POI. […] Cellular affinity purification was performed, followed by mass spectrometry (AP-MS) of FLAG-tagged CRBN transiently overexpressed in HEK293T cells. FLAG-CRBN expressing cells were co-treated with proteosome inhibitor and 1 μM of each degrader for 5 h, and the degree of kinase target enrichment was compared to kinase degradation hits in matched global proteomics analysis experiments (FIG. 3A, FIG. 3C). The proteins identified as complexed with CRBN were enriched for kinases as well as their known binding partners such as Cyclin B (CDK1) and RASSF1 (STK4), consistent with the binding profiles of the assayed degraders. All kinases identified by AP-MS except CSNK1A1 were also detected in the HEK293T whole proteome degrader profiling experiment, allowing us to interrogate trends across 52 unique kinases (FIG. 4A; FIG. 11B). Limitations of this experiment include the potential loss of transient or weakly bound complexes in the enrichment and subsequent wash steps, the inherent noise associated with AP-MS relative to global proteomics analysis (Dunham et al., Proteomics 12:1576-1590 (2012): Yugandhar et al., Comput Struct Biotechnol J 17:805-811 (2019)) and the short time point of the experiment, which precludes detection of degradation events with slow kinetics. Therefore, the relationship between the formation of abundant, stable ternary complexes and rapid degradation was assessed.
HEK293T cells were seeded into 15 cm plates and cells were transiently transfected with 8 μg of pNTM-FLAG-CRBN construct using lipofectamine 2000. […] Cells were harvested with non-enzymatic CellStripper™ Dissociation reagent (Corning®), followed by three washes with cold PBS and snap freezing. Cell lysis was performed by the addition of IP lysis buffer (50 mM Tris. pH 7.5, 0.5% NP-40, 1 mM EDTA, 10% glycerol and 200 mM NaCl) containing protease inhibitor cocktail (cOmplete™) and relevant co-treatment (above), followed by end-over-end rotation at 4° C. for 3 hours. Lysate was clarified by centrifugation and salt concentration diluted to 100 mM NaCl with the addition of 0 mM NaCl lysis buffer (containing protease inhibitors and 1 μM of relevant compounds to retain temary complexes throughout binding). Lysate was added to 20 μL of pre-washed anti-FLAG M2 magnetic bead slurry (MilliporeSigma) and incubated with end-over-end rotation at 4° C. overnight. Beads were washed six times with 100 mM NaCl lysis buffer containing 1 μM of relevant degraders to retain ternary complexes throughout wash steps.
Proteins were eluted in a two-step elution with the addition of 0.1 M Glycine hydrochloride (MilliporeSigma) and elution buffered to pH 8.5 using 200 mM Tris buffer, pH 8.5. […] Protein pellets were resuspended in 50 μL of EPPs pH 8 and first digested with 2 μg LysC for 12 h at room temperature (RT), followed by 1 μg of trypsin for 6 hours at 37° C.

CRBN = molecular target: T4, CRBN (Homo sapiens, UniProt Q96SW2); assay: Competitive displacement assay for cellular CRBN engagement (BRD4BD2-GFP reporter, dBET6); format: cell-based, H. sapiens; conditions: 5 hours in presence of dBET6
T4 construct: HEK293T cells stably expressing the BRD4BD2-GFP with mCherry reporter; endogenous in cells; host or cells: HEK293T stably expressing BRD4BD2-GFP / mCherry reporter
Description: HEK293T cells stably expressing the BRD4BD2-GFP with mCherry reporter were seeded at 30-50% confluency in 384-well plates with 50 μL FluoroBrite™ Dulbecco's Modified Eagle's medium (DMEM) media (Thermo Fisher Scientific. A18967) containing 10% fetal bovine serum (FBS) per well a day before compound treatment. Degrader titrations and 100 nM dBET6 or 250 nM AT1 were dispensed using a D300e Digital Dispenser (HP), normalized to 0.5% DMSO, and incubated with cells for 5 hours. Assay plates were imaged using Acumen® (TTP Labtech), as described above.

[14] = CLK1 P49759-3, experiment wp068
[15] = Experiment wp068, direction of change down

O=C1CCC(N2C(=O)c3cccc(NCCOCCOCCOCCOCCC(=O)Nc4cccc(CN5CCC(NC(=O)c6[nH]ncc6NC(=O)c6c(Cl)cccc6Cl)CC5)c4)c3C2=O)C(=O)N1 (stereo not shown) [FMF.04.147.1]
logFC [1]: −0.5346
logFC GSK3A [1]: −0.5346
logFC GSK3B ([2]; Accession P49841-2, experiment wp068, direction down): −0.6218
logFC ([2]; CDK9 (P50750-2) protein abundance, degrader vs DMSO, down): −0.9142
logFC [2, 14]: −0.6462
logFC CLK1 [2, 14]: −0.6462
logFC CDK9 (P50750-2) ([2]; Experiment wp068): −0.9142
logFC GSK3B ([2]; GSK3B P49841-2, experiment wp068): −0.6218
logFC SGK3 (Q96BR1-1) [3, 15]: −0.3389
logFC ([3]; SGK3 (Q96BR1-1), experiment wp068): −0.3389
logFC ([4]; CDK11A (Q9UQ88-1), experiment wp068): −0.7386
logFC of CDK11A (Q9UQ88-1) ([4]; Experiment wp068): −0.7386
logFC PIK3CG (P48736) [5, 15]: −0.3581
logFC ([5]; PIK3CG (P48736), experiment wp068): −0.3581
logFC PFKFB3 [6]: −0.4462

Cc1ncsc1-c1ccc([C@H](C)NC(=O)[C@@H]2C[C@@H](O)CN2C(=O)[C@@H](NC(=O)CCCCCCc2ccc(Nc3ncc4c(n3)-c3ccccc3NC(=O)N4)cc2)C(C)(C)C)cc1 [JWG.148]
logFC of SIK2 ([7]; Accession Q9H0K1): −0.455
logFC SIK2 (Q9H0K1) ([7]; direction of change down): −0.455
logFC ([8]; ABL2 (P42684) protein abundance, degrader vs DMSO, down): −0.516
logFC ABL2 (P42684) ([8]; Experiment wp195): −0.516
logFC TYK2 (P29597) ([9]; direction of change down): −0.5187
logFC TYK2 ([9]; protein TYK2 (P29597), down): −0.5187
logFC ([10]; EPHB2 (P29323), experiment wp195): −0.3596
logFC of EPHB2 (P29323) ([10]; Experiment wp195): −0.3596

COc1cc(N2CCN(CC(=O)NCCCCCCNc3cccc4c3C(=O)N(C3CCC(=O)NC3=O)C4=O)CC2)ccc1Nc1ncc2c(n1)N(C)c1ccccc1C(=O)N2CC(F)(F)F (stereo not shown) [FMF.04.135.1]
logFC [11]: −0.4969

Nc1ncc(-c2ccc(S(=O)(=O)N(CCCNC(=O)CCOCCOCCOCCOCCOCCNc3cccc4c3C(=O)N(C3CCC(=O)NC3=O)C4=O)C3CC3)cc2)cc1-c1ccc2c(c1)CCNC2=O (stereo not shown) [WH-10417-099]
STK4 degradation rescue on p97 inhibition [12]: very little degradation rescue
IRAK1: ternary complex formation with CRBN versus degradation [13]: complex formation does not predict degradation
targets with significantly different degrader efficacy in the different cell lines with no obvious difference in protein expression ([2]; MOLT-4, KELLY, HEK293T): GSK3B
kinases the bifunctional compound degrades ([2]; as stated for the structure in the embodiments): CDK14, CSNK1A1, CSNK1D, CSNK1E, GSK3A, GSK3B, LIMK2, MAP3K1, MINK1, NUAK1, PAK4, PIM2, STK10, STK17B, STK35, and STK4
Kinase hits ([2]; kinases significantly downregulated vs DMSO (fold change cutoff −1.25, P-value<0.01), ≤8 h, 0.1-5 μM degrader, 7 cell lines): CDK14, CSNK1A1, CSNK1D, CSNK1E, GSK3A, GSK3B, LIMK2, MAP3K1, MINK1, NUAK1, PAK4, PIM2, STK10, STKI7B, STK35, STK4
Total no. kinase hits ([2]; number of degraded kinases per library compound): 13
cellular permeability / CRBN engagement (CRBN): able to permeate the cell membrane and bind to the CRBN E3 ligase
